Laboratory results as given in patent publication US8969554B2, “6-acyl-1,2,4-triazine-3,5-dione derivative and herbicides” (Kumiai Chemical Industry Co., Ltd., priority 2010, dated 2015).

Legend:
Type in all cases: in vivo
Parameters in all cases: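 index 0 to 10 in 10% steps of herbicidal effect with 10 meaning complete death and 0 below 10%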
[1] = test system: Monochoria vaginalis; assay: Herbicidal activity by paddy field soil treatment (Test Example 1); conditions: 1000 g of effective component per hectare, evaluated on day 21 after the treatment, criteria of Table 72
Method: (§1) Test for Determining Herbicidal Activity by Paddy Field Soil Treatment A 100 cm^2 wide plastic pot was filled with a paddy field soil and, after watering and shuffling, seeds of each of Echinochloa oryzicola, Monochoria vaginalis, and Scirpus juncoides Rocxb. were sowed and watered to a depth of 3 cm. On the next day, the wettable powder obtained in view of Formulation example 1 was diluted with water and applied on water surface. The application amount was 1000 g of effective component per hectare. After that, the plants were cultivated in a greenhouse, and on day 21 after the treatment, evaluation was made by the criteria of Table 72 for determining the herbicidal effects. [table]

[2] = test system: Scirpus juncoides Rocxb.; assay: as above; conditions: applied on water surface, 1000 g of effective component per hectare, day 21 after the treatment
Method: as §1

[3] = test system: Indian millet; assay: Herbicidal activity by field foliage treatment (Test example 3); conditions: 1000 g effective component per hectare, day 14 after the treatment
Method: (§2) [table] Test for Determining Herbicidal Activity by Field Foliage Treatment A 80 cm^2 wide plastic pot was filled with a field soil and seeds of each of Indian millet and A. retroflexus were sowed and then incubated for 2 weeks in a green house. The wettable powder produced with reference to the Formulation example 1 was diluted water, and applied from the air to entire body of the plant as foliage treatment by using a small sprayer in an amount of 1000 liters per hectare so that the effective component is 1000 g per hectare. After that, the plants were cultivated in a greenhouse, and on day 14 after the treatment, evaluation was made by the criteria described in Table 72 for determining the herbicidal effects.

[4] = test system: A. retroflexus; assay: as above; conditions: 1000 g effective component per hectare, day 14 after the treatment
Method: as §2

[5] = test system: Echinochloa oryzicola; assay: Herbicidal activity by paddy field soil treatment (Test Example 1); conditions: 1000 g of effective component per hectare, evaluated on day 21 after the treatment, criteria of Table 72
Method: as §1

[6] = test system: Indian millet; assay: Herbicidal activity by field soil treatment (Test example 2); conditions: 1000 g effective component per hectare, day 21 after the treatment
Method: (§3) [table] Test for Determining Herbicidal Activity by Field Soil Treatment A 80 cm^2 wide plastic pot was filled with a field soil and seeds of each of Echinochloa crus-galli, foxtail, Indian millet, and A. retroflexus were sowed and then covered with soil. The wettable powder produced with reference to the Formulation example 1 was diluted water, and applied on the soil surface by using a small sprayer in an amount of 1000 liters per hectare so that the effective component is 1000 g per hectare. After that, the plants were cultivated in a greenhouse, and on day 21 after the treatment, evaluation was made by the criteria described in Table 72 for determining the herbicidal effects.

[7] = test system: A. retroflexus; assay: as above; conditions: 1000 g effective component per hectare, day 21 after the treatment
Method: as §3

[8] = test system: Echinochloa crus-galli; assay: Herbicidal activity by field foliage treatment (Test example 3); conditions: 1000 g effective component per hectare, day 14 after the treatment
Method: as §2, with “Test example 3” for “[table]”

Compound | Herbicidal effects index number, Monochoria vaginalis [1] | herbicidal effect index, S. juncoides Rocxb. [2] | herbicidal effect index, Abutilon theophrasti [3] | herbicidal effect index, Amaranthus retroflexus [4] | Herbicidal effects index number, Echinochloa oryzicola [5] | herbicidal effect index, Abutilon theophrasti [6] | herbicidal effect index, Amaranthus retroflexus [7] | herbicidal effect index, Echinochloa crus-galli [8]
Cc1cc(C)c(-n2c(=O)c(C(=O)O)nn(C)c2=O)c(C)c1 [V-366] | 10 | 8 | 7 | 10 |  |  |  | 
Cn1nc(C(=O)C2=C(O)CCCC2=O)c(=O)n(Cc2ccccc2)c1=O [I-205] | 10 | 10 | 10 | 10 | 7 |  |  | 
CCCCCCCCn1c(=O)c(C(=O)C2=C(O)CCCC2=O)nn(C)c1=O [I-295] |  |  | 9 | 8 |  |  |  | 
Cc1cc(-n2c(=O)c(C(=O)C3=C(O)CCCC3=O)nn(C)c2=O)no1 [I-189] | 10 | 10 | 9 | 10 |  | 10 | 10 | 
Cn1nc(C(=O)C2=C(O)CCCC2=O)c(=O)n(-c2c(F)c(F)c(F)c(F)c2F)c1=O [I-473] | 10 | 8 | 10 | 3 | 8 |  |  | 
COc1cc(OC)cc(-n2c(=O)c(C(=O)C3=C(O)CCCC3=O)nn(C)c2=O)c1 [Compound I-94] | 10 | 10 | 10 | 10 |  | 10 | 10 | 
O=C1CCCC(O)=C1C(=O)c1nn(-c2ccccc2)c(=O)n(-c2ccccc2)c1=O [I-262] | 8 |  |  |  |  |  |  | 
Cn1nc(C(=O)C2=C(O)CCCC2=O)c(=O)n(-c2cc(Cl)c(S(C)(=O)=O)c(Cl)c2)c1=O [I-301] | 10 | 10 | 7 | 10 | 10 |  |  | 
Cn1nc(C(=O)C2=C(O)CCCC2=O)c(=O)n(N2CCS(=O)(=O)CC2)c1=O [I-204] | 8 |  |  | 7 |  |  |  | 
CN(c1ccccc1)n1c(=O)c(C(=O)O)nn(C)c1=O [V-359] | 10 | 10 | 10 | 10 | 8 |  |  | 
Cn1ncc(C(=O)c2nn(C)c(=O)n(-c3ccccc3)c2=O)c1O [II-50, 6-(5-hydroxy-1-methyl-1H-pyrazole-4-carbonyl)-2-methyl-4-phenyl-1,2,4-triazine-3,5 (2H, 4H)-dione] | 8 | 7 | 8 | 10 |  |  |  | 
CCCCn1c(=O)c(C(=O)C2=C(O)CCCC2=O)nn(-c2ccccn2)c1=O [I-306] | 9 |  | 9 | 7 |  | 7 | 10 | 
COc1ccc(-n2c(=O)c(C(=O)C3=C(O)CCCC3=O)nn(C)c2=O)nc1 [I-290] | 10 | 10 | 9 | 10 |  | 10 | 8 | 
Cn1nc(C(=O)C2=C(O)CCCC2=O)c(=O)n(CS(C)(=O)=O)c1=O [Compound I-47] | 10 | 10 | 9 | 10 |  |  | 10 | 
CCc1ccc(-n2c(=O)c(C(=O)C3=C(O)CCCC3=O)nn(C)c2=O)nc1 [I-462] | 10 | 10 | 10 | 10 |  | 10 | 9 | 
CCCS(=O)(=O)Oc1c(C(=O)c2nn(C)c(=O)n(-c3ccccc3)c2=O)cnn1C(C)C [II-267, 1-isopropyl-4-(2-methyl-3,5-dioxo-4-phenyl-2,3,4,5-tetrahydro-1,2,4-triazine-6-ylcarbonyl)-1H-pyrazole-5-yl propane-1-sulfonate] | 8 |  | 9 |  |  |  |  | 
COc1ccc(-n2c(=O)c(C(=O)C3=C(O)CCCC3=O)nn(C)c2=O)cc1 [Compound I-62] | 8 |  | 9 | 10 |  |  |  | 
C=Cc1ccc(-n2c(=O)c(C(=O)C3=C(O)CCCC3=O)nn(C)c2=O)nc1 [I-293] | 10 | 10 | 8 | 10 |  | 10 |  | 
COc1cccc(-n2c(=O)c(C(=O)O)nn(C)c2=O)c1 [V-61] |  |  |  |  |  | 8 |  | 
Cn1nc(C(F)(F)F)cc1-n1c(=O)c(C(=O)C2=C(O)CCCC2=O)nn(C)c1=O [I-272] | 8 | 8 | 9 | 10 | 7 |  | 8 | 6
Cn1nc(C(=O)O)c(=O)n(-c2c(F)c(F)c(F)c(F)c2F)c1=O [V-367] | 10 | 8 | 10 |  | 8 |  |  | 
Cc1cc(C)nc(-n2c(=O)c(C(=O)O)nn(C)c2=O)n1 [V-360] | 10 | 10 | 7 | 10 |  |  |  | 8
Cc1cc(C)c(-n2c(=O)c(C(=O)C3=C(O)CCCC3=O)nn(C)c2=O)c(C)c1 [I-472] | 10 | 8 | 7 | 10 |  |  |  | 
CCCCCn1nc(C(=O)C2=C(O)CCCC2=O)c(=O)n(-c2ccccc2)c1=O [I-308] | 8 |  | 8 |  |  |  | 10 | 
Cc1cc(C)nc(-n2c(=O)c(C(=O)C3=C(O)CCCC3=O)nn(C)c2=O)n1 [I-467] | 10 | 10 | 7 | 10 |  |  |  | 8
Cc1ccc(-n2c(=O)c(C(=O)O)nn(C)c2=O)nc1 [V-361] | 10 | 10 | 9 | 10 |  | 10 | 8 | 
CN(c1ccccc1)n1c(=O)c(C(=O)C2=C(O)CCCC2=O)nn(C)c1=O [I-466] | 10 | 10 | 10 | 10 | 8 |  |  | 
Cc1ccc(-n2c(=O)c(C(=O)O)nn(C)c2=S)nc1 [V-291] | 8 |  |  |  |  |  |  | 
